From patent publication US20060057104A1, “Methods for stimulating tlr irf3 pathways for inducing anti-microbial, anti-inflammatory and anticancer responses” (THE Regents of the University of California Office of the …, priority 2002, published 2006)

How the values were obtained:
MHV68 [1] = experiment: MHV68 replication in BMMs treated with TLR ligands (immunoblot of viral proteins); format: cell-based, Murine gammaherpesvirus 68; details: MOI=5, 48 hours, 10, 1 or 0.1 ng/ml lipid A, 100 nM CpG, 10 μg/ml PGN, 1, 0.1 or 0.01 μg/ml poly I:C
Description: (E) BMMs were infected with MHV68 (moi=5) and simultaneously treated with the indicated TLR ligands (100 nM CpG; 10, 1, or 0.1 ng/ml lipid A; 10 μg/ml PGN; or 1, 0.1, or 0.01 μg/ml poly I:C). After 48 hr, cells were harvested and analyzed for MHV68 replication proteins by immunoblotting using rabbit anti-MHV68 antibodies.
Murine gammaherpesvirus 68 (MHV68) was produced and titered as previously described (Wu, T.-T., Tong, L., Rickabaugh, T., Speck, S., and Sun, R. (2001), J. Virol. 75, 9262-9273). For infection of macrophages, cells were simultaneously treated with PAMPs and infected with MHV68 at an MOI of 5. Following an incubation period of 48 hours cells were lysed in Laemmli buffer and 10% of total volume was subjected to SDS-PAGE, transferred to nitrocellulose, and MHV68 proteins detected by western blotting.
BMMs were simultaneously infected with MHV68 (MOI=5) and treated with various TLR ligands (10, 1 or 0.1 ng/ml lipid A, 100 nM CpG, 10 μg/ml PGN or 1, 0.1, or 0.01 μg/ml poly I:C) for 48 hours, and replication of viral proteins was then assayed by western blot analysis. […] This was true whether BMMs were treated with 10 or 20 μg/ml PGN and the inhibition was always considerably weaker than that caused by either 1 ng/ml lipid A or 1 μg/ml poly I:C.

MHV68 [2] = experiment: MHV68 viral replication assay in wild-type and IFNAR−/− BMMs (M9 western blot); format: cell-based, Murine gammaherpesvirus 68; details: MOI 5, 48 h, co-treatment
Description: (B) For viral replication assays, BMMs were simultaneously stimulated with PAMPs (10, 1, or 0.1 ng/ml lipid A, or 1, 0.1, or 0.01 μg/ml poly(I:C)) and infected with MHV68 using a multiplicity of infection of five. Cell lysates were harvested at 48 h postinfection and subjected to Western blotting analysis using an Ab specific to the MHV68 protein M9. Actin levels were also assayed to ensure equal loading. The data represent two independent experiments.
A129 (IFNAR-1^−/−) (Muller, U., U. Steinhoff, L. F. L. Reis, S. Hemmi, J. Pavlovic, R. M. Zinkernagel, and M. Aguet. 1994. Functional role of type I and type II interferons in antiviral defense. Science 264:1918) and B6129SF2/J wild type control mice were obtained from B&K Universal Ltd. and Jackson Laboratories, respectively. C57/B6 mice were used for all experiments not involving the A129 mice (Jackson Laboratories). Specific TLR activation was achieved using F-583 (Rd mutant) E. coli lipid A for TLR4 (Sigma), CpG oligonucleotides for TLR9 (Invitrogen) and poly I:C for TLR3 (Pharmacia). […]
Using the MHV68 protein M9 as a readout for viral load, we show in FIG. 13B that the antiviral activity of macrophage cells infected with MHV68 was abolished in the absence of IFNAR despite co-treatment with either lipid A or poly I:C. […]

Substance | inhibition of MHV68 replication (MHV68 [1]) | antiviral activity against MHV68 in the absence of IFNAR (MHV68 [2])
lipid A | significantly inhibit MHV68 replication in a concentration dependent manner | abolished
poly I:C | significantly inhibit MHV68 replication in a concentration dependent manner | abolished
